The values below come from patent US12282026B2, “Method for screening personalized intestinal environment-improving material and composition therefor” (HEM PHARMA INC., priority 2019, dated 2025).

The assay concerns feces samples. The class given is cell-based, human.

As to Clostridium butyricum [CB], the “change in amount of butyrate” value is given as “increases significantly”.
